Measurements published in patent publication US5663207A, “Gem-dichlorocyclopropanes as antitumor agents” (priority 1995, dated 1997).

Legend:
[1] = tested on: Immature Swiss-Webster female mice (estradiol-stimulated uterine weight); experiment: Antiuterotrophic assay for antiestrogenic activity in immature mice; format: in vivo, mouse (Swiss-Webster); conditions: 0.4, 0.8, and 1.6 mg; three-day assay; estradiol 0.03 μg
From the text: The biological evaluation of the test compounds consisted of the in vitro rat cytosolic estradiol receptor binding assay, the in vivo immature mouse uterotrophic (estrogenic) and antiuterotrophic (antiestrogenic) assays, and the in vitro suppression of the proliferation of the ER positive MCF-7 human breast cancer cell line.
Vital-free immature female Swiss-Webster mice were obtained at 17-19 days of age from Sasco weighing 8-10 g, and were used in the uterotrophic and antiuterotrophic assays. Immature female Sprague-Dawley rats, obtained at 17-19 days of age from Sasco, weighing 28-33 g, were used as sources of uteri for the estradiol receptor binding assay. Animals were housed in wire topped polycarbonate cages at six animals per cage, with the environment controlled at 25° C. and a 12 h light/dark cycle. […]
The antiestrogenic assay was conducted as described for the estrogenic assay, except that each mouse in the cyclopropyl treatment groups received a standard stimulating dose of estradiol (0.03 μg) in sesame oil (0.1 mL) and the test compounds or MER 25 were administered in isopropyl myristate (0.05 mL) in a dosage range of 0.4, 0.8 and 1.6 mg (total dose). […] Antiestrogenic activity was measured as a decrease in the estradiol-stimulated […] response in groups that received both the test compound and estradiol as compared to the group treated only with estradiol.

estrogen receptor = target: T1, estrogen receptor (Rattus norvegicus, UniProt P06211); conditions: cited from earlier work
T1 construct: ovariectomized rat uterine cytosolic estrogen receptor preparation; from tissue; host or cells: uterine cytosol of ovariectomized Sprague-Dawley rats (immature rats from Sasco are named as uterus source, mature ovariectomized rats)
T1 sequence (P06211 1-600): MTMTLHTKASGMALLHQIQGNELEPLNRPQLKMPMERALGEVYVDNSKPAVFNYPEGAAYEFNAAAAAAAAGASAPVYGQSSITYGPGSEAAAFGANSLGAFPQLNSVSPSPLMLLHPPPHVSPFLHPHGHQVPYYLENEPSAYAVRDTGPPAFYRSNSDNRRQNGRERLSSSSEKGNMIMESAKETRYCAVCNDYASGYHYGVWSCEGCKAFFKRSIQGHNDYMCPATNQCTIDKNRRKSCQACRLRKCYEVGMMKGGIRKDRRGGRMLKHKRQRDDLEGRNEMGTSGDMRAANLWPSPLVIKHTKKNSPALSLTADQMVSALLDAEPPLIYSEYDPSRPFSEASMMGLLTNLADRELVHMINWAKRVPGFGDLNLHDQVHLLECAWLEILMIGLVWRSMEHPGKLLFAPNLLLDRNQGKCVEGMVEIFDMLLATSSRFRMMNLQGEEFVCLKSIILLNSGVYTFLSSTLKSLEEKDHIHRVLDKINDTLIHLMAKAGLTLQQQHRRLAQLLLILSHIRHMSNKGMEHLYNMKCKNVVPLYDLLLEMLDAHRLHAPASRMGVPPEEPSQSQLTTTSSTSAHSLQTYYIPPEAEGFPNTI

In the case of CCN(CC)CCOc1ccc(C(O)(Cc2ccc(OC)cc2)c2ccccc2)cc1 (stereo not drawn) [MER-25], the “antiestrogenic activity: effect on estradiol-induced uterine weight gain (in words)” value [1] is listed as “significant reduction in estradiol-induced uterotrophic activity”, the “RBA (relative binding affinity)” value (estrogen receptor; relative to estradiol = 100%, footnote e, Day et al. (1991)) is listed as “--^e (Less than 0.01%.)” and the “[3H]-estradiol displacement curve (in words)” value (estrogen receptor; standards, Day et al., 1991) is listed as “very weak dose-related displacement”.
